Patent US8101180B2, “Anti-IGF-IR and/or anti-insulin/IGF-I hybrid receptors antibodies and uses thereof” (Pierre Fabre Medicament, priority 2002, dated 2012)

Test system: SK-ES-1 tumor
Test: SK-ES-1 osteosarcoma xenograft
Format: in vivo, nude mice
Conditions: 250 μg/dose/mouse twice per week i.p.
Procedure: In these 4 models, the treatment was carried out twice per week i.p. at a rate of 250 μg/dose/mouse.

Substance: 7C10: murine monoclonal anti-IGF-IR IgG1 secreted by the hybridoma deposited at the CNCM under the number I-2717
- antitumor activity in SKES-1 osteosarcoma model: significant activity
